# Results taken from PubChem BioAssay AID328 (DTP/NCI, 2004).
# “And” between values parts separate entries of the source, which are not always exact repeats. Identical values can stand only once. Toxic doses and inconclusive results are not listed.
# System: BDF1 mice, P388 leukemia ip, median survival T/C
# Assay: NCI In Vivo Anticancer Drug Screen. Data for tumor model P388 Leukemia (intraperitoneal) in B6D2F1 (BDF1) mice
# Conditions: endpoint: median survival time, higher = longer survival
# Outline: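 T/C = treated-group survival ÷ vehicle-control survival; tumour transplanted into mice before dosing.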
# [1] = dose: 50.0 mg/kg/injection, schedule: Q01DX009 (ip), vehicle: water
# [2] = dose: 100.0 mg/kg/injection, schedule: Q01DX009 (ip), vehicle: water
# [3] = dose: 100.0 mg/kg/injection, schedule: Q04DX003 (ip), vehicle: water
# [4] = dose: 200.0 mg/kg/injection, schedule: Q04DX003 (ip), vehicle: water
# [5] = dose: 400.0 mg/kg/injection, schedule: Q04DX003 (ip), vehicle: water
# [6] = dose: 100.0 mg/kg/injection, schedule: Q01DX009 (ip), vehicle: Klucel (hydroxypropylcellulose) (HPC)
# [7] = dose: 100.0 mg/kg/injection, schedule: Q04DX003 (ip), vehicle: Klucel (hydroxypropylcellulose) (HPC)
# [8] = dose: 200.0 mg/kg/injection, schedule: Q01DX009 (ip), vehicle: Klucel (hydroxypropylcellulose) (HPC)
# [9] = dose: 400.0 mg/kg/injection, schedule: Q04DX003 (ip), vehicle: Klucel (hydroxypropylcellulose) (HPC)
# [10] = dose: 25.0 mg/kg/injection, schedule: Q04DX003 (ip), vehicle: saline with Tween-80
# [11] = dose: 50.0 mg/kg/injection, schedule: Q04DX003 (ip), vehicle: saline with Tween-80
# [12] = dose: 100.0 mg/kg/injection, schedule: Q04DX003 (ip), vehicle: saline with Tween-80
# [13] = dose: 100.0 mg/kg/injection, schedule: Q01DX009 (ip), vehicle: saline with Tween-80
# [14] = dose: 200.0 mg/kg/injection, schedule: Q04DX003 (ip), vehicle: saline with Tween-80
# [15] = dose: 200.0 mg/kg/injection, schedule: Q04DX003 (ip), vehicle: Klucel (hydroxypropylcellulose) (HPC)
# [16] = dose: 12.5 mg/kg/injection, schedule: Q01DX009 (ip), vehicle: water
# [17] = dose: 25.0 mg/kg/injection, schedule: Q01DX009 (ip), vehicle: water
# [18] = dose: 50.0 mg/kg/injection, schedule: Q04DX003 (ip), vehicle: water
# [19] = dose: 200.0 mg/kg/injection, schedule: Q01DX009 (ip), vehicle: saline with Tween-80
# [20] = dose: 25.0 mg/kg/injection, schedule: Q01DX009 (ip), vehicle: saline with Tween-80
# [21] = dose: 50.0 mg/kg/injection, schedule: Q01DX009 (ip), vehicle: saline with Tween-80
structure (smiles),measurement,setting,value
CCOC(=O)CNCc1ccc(C)cc1,T/C,[1],100 % of control
same,T/C,[2],99 % of control
same,T/C,[3],91 % of control
same,T/C,"dose: 200.0 mg/kg/injection, schedule: Q01DX009 (ip), vehicle: water",103 % of control
same,T/C,[4],93 % of control
same,T/C,"dose: 400.0 mg/kg/injection, schedule: Q01DX009 (ip), vehicle: water",108 % of control
same,T/C,[5],100 % of control
CNc1ccccc1C#N,T/C,[6],100 % of control
same,T/C,[7],91 % of control
same,T/C,[8],100 % of control
same,T/C,[9],91 % of control
c1cnc2c3c(ccc2c1)CN(C12CC4CC(CC(C4)C1)C2)CO3,T/C,[10],108 % of control
same,T/C,[11],109 % of control and 113 % of control
same,T/C,[12],108 % of control
CC(=O)NC1C(S[As](C)C)OC(COC(C)=O)C(OC(C)=O)C1OC(C)=O (stereo not given),T/C,[13],124 % of control
CCCCCCCC(=O)Nc1ccc(C)cc1C,T/C,"dose: 100.0 mg/kg/injection, schedule: Q04DX003 (ip), vehicle: other",95 % of control
same,T/C,"dose: 200.0 mg/kg/injection, schedule: Q04DX003 (ip), vehicle: other",104 % of control
same,T/C,"dose: 400.0 mg/kg/injection, schedule: Q04DX003 (ip), vehicle: other",95 % of control
Cc1cc(NC(=O)c2ccccc2)c(Cl)cc1N,T/C,[11],95 % of control
same,T/C,[12],95 % of control
same,T/C,[14],95 % of control
CCCCCCCCCCCCc1c(C(OC)OC)[nH]c(=S)[nH]c1=O,T/C,[6],107 % of control
same,T/C,[7],104 % of control
same,T/C,[8],88 % of control
same,T/C,[15],100 % of control
same,T/C,"dose: 400.0 mg/kg/injection, schedule: Q01DX009 (ip), vehicle: Klucel (hydroxypropylcellulose) (HPC)",96 % of control
same,T/C,[9],100 % of control
COc1ccc(C2=CC(c3ccc4c(c3)OCO4)c3c(c4ccccc4oc3=O)O2)cc1OC (stereo not given),T/C,[16],96 % of control
same,T/C,[17],106 % of control
same,T/C,[1],102 % of control
same,T/C,[18],101 % of control
same,T/C,[2],93 % of control
same,T/C,[3],110 % of control
same,T/C,[4],94 % of control
same,T/C,[5],94 % of control
NC(=O)Nc1cccc2ccccc12,T/C,[7],88 % of control
same,T/C,"dose: 200.0 mg/kg/injection, schedule: Q01DX009 (ip), vehicle: gum acacia",92 % of control
same,T/C,[15],92 % of control
same,T/C,"dose: 400.0 mg/kg/injection, schedule: Q01DX009 (ip), vehicle: gum acacia",96 % of control
CS(=O)(=O)OCCN(CCOS(C)(=O)=O)c1cccc(C(F)(F)F)c1,T/C,"dose: 33.0 mg/kg/injection, schedule: Q04DX003 (ip), vehicle: saline with Tween-80",155 % of control and 168 % of control
same,T/C,[11],170 % of control and 190 % of control
same,T/C,"dose: 75.0 mg/kg/injection, schedule: Q04DX003 (ip), vehicle: saline with Tween-80",236 % of control and 190 % of control
CCSC(=O)N1c2ccc(OC)cc2C=CC1C#N (stereo not given),T/C,[13],164 % of control
same,T/C,[19],180 % of control
same,T/C,"dose: 400.0 mg/kg/injection, schedule: Q01DX009 (ip), vehicle: saline with Tween-80",190 % of control
same,T/C,"dose: 600.0 mg/kg/injection, schedule: Q04DX003 (ip), vehicle: saline with Tween-80",150 % of control
O=C1NC2(CCCCCC2)C(=O)N1CN1CCOCC1,T/C,"dose: 25.0 mg/kg/injection, schedule: Q04DX003 (ip), vehicle: saline sonified",90 % of control
same,T/C,"dose: 50.0 mg/kg/injection, schedule: Q04DX003 (ip), vehicle: saline sonified",95 % of control
same,T/C,"dose: 100.0 mg/kg/injection, schedule: Q04DX003 (ip), vehicle: saline sonified",104 % of control
CC(NC(=O)C(N)CSC(c1ccccc1)(c1ccccc1)c1ccccc1)C(=O)O (stereo not given),T/C,"dose: 88.0 mg/kg/injection, schedule: Q04DX003 (ip), vehicle: saline with Tween-80",113 % of control
same,T/C,"dose: 88.0 mg/kg/injection, schedule: Q04DX003 (ip), vehicle: saline",122 % of control
same,T/C,[14],195 % of control
CCN1CC[N+](C)(CC)Cc2ccccc21 (stereo not given),T/C,"dose: 12.5 mg/kg/injection, schedule: Q04DX003 (ip), vehicle: saline with Tween-80",90 % of control
same,T/C,[10],93 % of control
COc1ccc(CNCCNCc2ccc(OC)cc2)cc1,T/C,[16],98 % of control
same,T/C,[17],100 % of control
same,T/C,"dose: 25.0 mg/kg/injection, schedule: Q04DX003 (ip), vehicle: water",95 % of control
same,T/C,[1],115 % of control
same,T/C,[18],95 % of control
same,T/C,[2],92 % of control and 107 % of control
same,T/C,[3],100 % of control and 109 % of control
COc1cccc2c1C(=O)c1c(O)c3c(c(O)c1C2=O)C[C@@](O)(C(C)=O)C[C@@H]3OC1CC(NC=O)C(O)C(C)O1 (stereo not given in full),T/C,"dose: 0.25 mg/kg/injection, schedule: Q01DX009 (ip), vehicle: water",108 % of control and 110 % of control
same,T/C,"dose: 0.5 mg/kg/injection, schedule: Q01DX009 (ip), vehicle: water",110 % of control and 117 % of control
same,T/C,"dose: 1.0 mg/kg/injection, schedule: Q01DX009 (ip), vehicle: water",107 % of control
same,T/C,"dose: 2.0 mg/kg/injection, schedule: Q01DX009 (ip), vehicle: water",186 % of control
same,T/C,"dose: 4.0 mg/kg/injection, schedule: Q01DX009 (ip), vehicle: water",205 % of control
same,T/C,"dose: 8.0 mg/kg/injection, schedule: Q01DX009 (ip), vehicle: water",169 % of control
C(=C/c1ccnc2ccccc12)/c1cccs1,T/C,[20],102 % of control
same,T/C,[21],110 % of control
same,T/C,[13],111 % of control
same,T/C,[19],119 % of control
CCOC(=O)N(C)C1CCC1NC (stereo not given),T/C,"dose: 50.0 mg/kg/injection, schedule: Q01DX001 (ip), vehicle: saline",100 % of control
same,T/C,"dose: 100.0 mg/kg/injection, schedule: Q01DX001 (ip), vehicle: saline",95 % of control
same,T/C,"dose: 200.0 mg/kg/injection, schedule: Q01DX001 (ip), vehicle: saline",95 % of control
OCC(O)C(O)C(O)c1cnn(-c2ccccc2)n1 (stereo not given),T/C,"dose: 75.0 mg/kg/injection, schedule: Q01DX009 (ip), vehicle: saline with Tween-80",96 % of control
same,T/C,"dose: 150.0 mg/kg/injection, schedule: Q01DX009 (ip), vehicle: saline with Tween-80",89 % of control
same,T/C,"dose: 300.0 mg/kg/injection, schedule: Q01DX009 (ip), vehicle: saline with Tween-80",96 % of control
CC1(C)N=C(N)N=C(N)N1c1cccc(CN)c1,T/C,"dose: 12.5 mg/kg/injection, schedule: Q04DX003 (ip), vehicle: saline",90 % of control
same,T/C,"dose: 25.0 mg/kg/injection, schedule: Q01DX009 (ip), vehicle: saline",100 % of control
same,T/C,"dose: 25.0 mg/kg/injection, schedule: Q04DX003 (ip), vehicle: saline",100 % of control
same,T/C,"dose: 50.0 mg/kg/injection, schedule: Q01DX009 (ip), vehicle: saline",95 % of control and 105 % of control
same,T/C,"dose: 50.0 mg/kg/injection, schedule: Q04DX003 (ip), vehicle: saline",100 % of control
same,T/C,"dose: 100.0 mg/kg/injection, schedule: Q01DX009 (ip), vehicle: saline",90 % of control and 110 % of control
same,T/C,"dose: 100.0 mg/kg/injection, schedule: Q04DX003 (ip), vehicle: saline",104 % of control
N#CCC(=O)N1Cc2cc3ccccc3nc2C1,T/C,"dose: 50.0 mg/kg/injection, schedule: Q01DX001 (ip), vehicle: saline sonified",100 % of control
same,T/C,"dose: 100.0 mg/kg/injection, schedule: Q01DX001 (ip), vehicle: saline sonified",100 % of control
same,T/C,"dose: 200.0 mg/kg/injection, schedule: Q01DX001 (ip), vehicle: saline sonified",100 % of control
CCN(CC)c1c(-c2ccccc2)nnc2c3ccccc3nn12,T/C,[20],100 % of control
same,T/C,[21],88 % of control
same,T/C,[13],100 % of control
